Data: publication PMC10698726 (Molecular Pharmaceutics, 2023)
pIC50: −log10 of the molar value. Read-outs that look alike come from different tables or passages of the source.

Assays:
OCT2 = target: T1, OCT2 (Homo sapiens, UniProt O15244); assay: Inhibition of model substrate uptake in OCT2-overexpressing HEK293 cells; settings: for (S,S)-Ethambutol inhibition [%] / inhibition at 5 min, 20 μM: OCT2, 20 μM inhibitor, 5 min; for inhibition at 5 min, 20 μM: human
T1 sequence (O15244 1-555): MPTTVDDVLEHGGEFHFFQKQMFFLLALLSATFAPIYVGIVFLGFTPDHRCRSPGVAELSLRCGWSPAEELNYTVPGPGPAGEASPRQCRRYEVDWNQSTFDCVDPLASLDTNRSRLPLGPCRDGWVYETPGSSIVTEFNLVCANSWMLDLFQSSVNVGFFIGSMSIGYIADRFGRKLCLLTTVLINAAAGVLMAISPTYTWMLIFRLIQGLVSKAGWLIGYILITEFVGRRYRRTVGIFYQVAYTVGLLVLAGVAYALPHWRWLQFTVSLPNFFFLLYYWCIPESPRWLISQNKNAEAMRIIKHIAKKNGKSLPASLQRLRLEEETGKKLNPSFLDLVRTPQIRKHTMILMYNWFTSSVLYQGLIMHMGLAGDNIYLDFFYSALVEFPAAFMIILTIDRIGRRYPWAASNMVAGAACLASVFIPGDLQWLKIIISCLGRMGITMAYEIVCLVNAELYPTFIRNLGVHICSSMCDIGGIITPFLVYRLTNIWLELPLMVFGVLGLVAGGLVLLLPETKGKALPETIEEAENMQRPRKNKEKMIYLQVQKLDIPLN
Procedure: (§1) All experiments were carried out in transporter-overexpressing HEK293 cells. OCT1-, OCT2-, NET-, DAT-, and SERT-overexpressing cells as well as the empty-vector transfected control cell line were generated as described earlier,[26]−[28] whereas the OCT3-overexpressing HEK293 cells were generous gift of from Drs. Koepsell and Gorbulev (University of Würzburg, Germany). All cells were cultivated in Dulbecco’s modified Eagle’s medium (DMEM) supplemented with 10% (v/v) FCS, penicillin (100 U/mL), and streptomycin (100 μg/mL) and kept in culture for no longer than 30 passages.
(§2) As for the transport experiments, 300,000 HEK293 cells were plated in poly-D-lysine-coated 24-well plates 2 days ahead of the experiment. On every plate, two wells of empty vector (EV)-transfected cells were used as a control to account for the passive influx of the model substrate, and two wells of transporter-overexpressing cells were used to determine the noninhibited uptake of the model substrate. Cells were initially washed once with 37 °C HBSS+ and then incubated with 2 μM model substrate (0.2 μM for MPP^+ uptake by MATs) with and without 20 μM inhibitor for 5 min. For concentration-dependent inhibition experiments, the cells were incubated with increasing inhibitor concentrations. The incubation was terminated by aspiration of the buffer before cells were washed twice with ice-cold HBSS+ and lysed in 80% acetonitrile. Cell lysates were transferred into a black 96-well plate for the fluorescence measurement of ASP^+ or used for sample preparation for LC–MS/MS analysis. […] Fluorescence quantification was performed in technical duplicates.
(§3) Transporter-mediated net uptake was calculated as the difference between uptake in transporter-overexpressing cells and that in the empty-vector-transfected control. […] Vmax is the maximum transport velocity, while Km is defined as the substance concentration that is required to reach half of vmax. The ratio of vmax over Km is termed intrinsic clearance Clint. For inhibition experiments, the transport activity was calculated by using the following equation [drawing 1]
(§4) SubstrateEV refers to the passive uptake of model substrates into the control cells and substratenoninhibited is the uptake in transporter-overexpressing cells without the presence of any inhibitor. The percent inhibition values are then calculated as described in the following [drawing 2]
(§5) For concentration inhibition experiments, the transporter activity was plotted against the log10 of inhibitor concentrations, and the data were fitted by the following equation to determine IC50 values [drawing 3]
(§6) Y refers to the transporter activity, whereas Ymax is the maximum and Ymin is the minimal transporter activity. X is the log10 of inhibitor concentrations, IC50 is the half-maximal inhibitory concentration, and hill slope is the slope factor.

OCT3 = target: T2, OCT3 (Homo sapiens, UniProt O75751); assay: Inhibition of model substrate uptake in OCT3-overexpressing HEK293 cells; format: cell-based; settings: 20 μM inhibitor, 5 min
T2 construct: expressed in transfected cells; host or cells: HEK293
T2 sequence (O75751 1-556): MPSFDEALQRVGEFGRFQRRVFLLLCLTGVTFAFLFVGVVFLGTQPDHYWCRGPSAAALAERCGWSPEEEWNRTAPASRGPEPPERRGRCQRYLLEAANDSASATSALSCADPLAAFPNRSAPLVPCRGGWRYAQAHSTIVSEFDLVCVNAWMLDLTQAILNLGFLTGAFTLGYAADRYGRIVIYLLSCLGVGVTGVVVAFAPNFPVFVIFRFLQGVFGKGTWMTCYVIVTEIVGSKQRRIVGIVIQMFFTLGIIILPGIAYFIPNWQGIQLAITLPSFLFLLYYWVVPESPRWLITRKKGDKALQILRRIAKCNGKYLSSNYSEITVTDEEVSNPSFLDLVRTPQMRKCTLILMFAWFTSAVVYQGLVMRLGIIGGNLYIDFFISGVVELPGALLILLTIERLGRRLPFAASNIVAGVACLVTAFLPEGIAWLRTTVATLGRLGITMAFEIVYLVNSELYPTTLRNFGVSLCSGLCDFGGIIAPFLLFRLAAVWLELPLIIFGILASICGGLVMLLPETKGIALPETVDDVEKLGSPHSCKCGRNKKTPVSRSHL
Procedure: as §1, §2, §3, §4, §5, §6

OCT1 = target: T3, OCT1 (Homo sapiens, UniProt O15245); assay: Inhibition of model substrate uptake in OCT1-overexpressing HEK293 cells; format: cell-based; parameters: expressed in transfected cells; host or cells: HEK293; settings: for inhibition at 5 min, 20 μM: human
T3 sequence (O15245 1-554): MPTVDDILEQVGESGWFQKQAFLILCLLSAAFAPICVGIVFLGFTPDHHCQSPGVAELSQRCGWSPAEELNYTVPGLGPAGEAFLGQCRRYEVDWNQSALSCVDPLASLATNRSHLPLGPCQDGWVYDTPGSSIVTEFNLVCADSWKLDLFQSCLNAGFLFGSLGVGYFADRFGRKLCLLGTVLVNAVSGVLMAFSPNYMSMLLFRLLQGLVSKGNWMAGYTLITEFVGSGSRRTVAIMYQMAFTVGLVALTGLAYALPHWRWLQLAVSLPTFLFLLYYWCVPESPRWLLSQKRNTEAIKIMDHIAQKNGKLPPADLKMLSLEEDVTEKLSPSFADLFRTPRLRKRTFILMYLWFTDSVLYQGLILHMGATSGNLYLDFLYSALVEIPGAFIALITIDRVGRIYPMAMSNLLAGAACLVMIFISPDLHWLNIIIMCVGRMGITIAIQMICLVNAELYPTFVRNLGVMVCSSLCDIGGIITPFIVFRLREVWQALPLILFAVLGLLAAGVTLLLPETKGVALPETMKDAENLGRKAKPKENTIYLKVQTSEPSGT
Procedure: Koepsell and Gorbulev (University of Würzburg, Germany).
Fluorescence quantification was performed in technical duplicates.

[1] = HEK293, 5 min, read-out: (S)-Zolmitriptan inhibition [%], OCT3, 2 μM (S)-zolmitriptan
[2] = HEK293, 5 min, read-out: (S,S)-Ethambutol inhibition [%], OCT3, 2 μM (S,S)-ethambutol
[3] = OCT2-overexpressing HEK293 cells, pH 7.4, probe (S,S)-ethambutol (2 μM), (S,S)-Ethambutol inhibition [%], 2 μM (S,S)-ethambutol
[4] = OCT2-overexpressing HEK293 cells, pH 7.4, probe ASP+ (2 μM), ASP+ inhibition [%], 2 μM ASP+
[5] = OCT2-overexpressing HEK293 cells, pH 7.4, probe N-ethyllidocaine (2 μM), N-Ethyllidocaine inhibition [%], 2 μM N-ethyllidocaine
[6] = HEK293, OCT3, 2 μM ASP+, read-out: ASP+ inhibition [%]
[7] = OCT1-overexpressing HEK293 cells, pH 7.4, probe (S,S)-ethambutol (2 μM), (S,S)-Ethambutol inhibition [%], OCT1, 20 μM inhibitor, 2 μM (S,S)-ethambutol, 5 min
[8] = OCT1-overexpressing HEK293 cells, pH 7.4, probe ASP+ (2 μM), OCT1, 20 μM inhibitor, 2 μM ASP+, 5 min, mean of three experiments, read-out: ASP+ inhibition [%]
[9] = OCT1-overexpressing HEK293 cells, pH 7.4, probe sumatriptan (2 μM), OCT1, 20 μM inhibitor, 2 μM sumatriptan, 5 min, read-out: Sumatriptan inhibition [%]

Compound | (S,S)-Ethambutol inhibition [%] (OCT2; 2 μM (S,S)-ethambutol) | inhibition at 20 µM (OCT3; [1]) | inhibition at 20 µM (OCT3; [2]) | inhibition at 5 min, 20 μM (OCT2; [3]) | inhibition at 5 min, 20 μM (OCT2; [4]) | inhibition at 5 min, 20 μM (OCT2; [5]) | inhibition at 20 µM (OCT3; [6]) | inhibition at 5 min, 20 μM (OCT1; [7]) | inhibition at 5 min, 20 μM (OCT1; [8]) | inhibition at 5 min, 20 μM (OCT1; [9]) | other results
O=C(OC1C[N+]2(CCCOc3ccccc3)CCC1CC2)C(O)(c1cccs1)c1cccs1 [(R)-Aclidinium] | -0.8% | 43.3% | 62.8% | – | – | – | – | – | – | – | inhibition at 5 min, 20 μM (OCT2; pH 7.4, ASP+ inhibition [%], 2 μM ASP+): 108%; inhibition at 5 min, 20 μM (OCT2; pH 7.4, N-Ethyllidocaine inhibition [%], 2 μM N-ethyllidocaine): 69.1%; inhibition at 20 µM (OCT3; HEK293, read-out: ASP+ inhibition [%], OCT3, 2 μM ASP+): 37.1%; inhibition at 5 min, 20 μM (OCT1; pH 7.4, (S,S)-Ethambutol inhibition [%], OCT1, 20 μM inhibitor, 2 μM (S,S)-ethambutol, 5 min): 98.8%; inhibition at 5 min, 20 μM (OCT1; pH 7.4, OCT1, 20 μM inhibitor, 2 μM ASP+, 5 min, mean of three experiments, read-out: ASP+ inhibition [%]): 71.6%; inhibition at 5 min, 20 μM (OCT1; pH 7.4, OCT1, 20 μM inhibitor, 2 μM sumatriptan, 5 min, read-out: Sumatriptan inhibition [%]): 93.6%
CCCCN1CCCC[C@@H]1C(=O)Nc1c(C)cccc1C [(R)-Bupivacaine] | – | 51.8% | 50.3% | 56.3% | 59.5% | 64.4% | 31.4% | 63.8% | 32.8% | 59.2% | IC50 (OCT2; IC50 [μM], OCT2, Table 1): 21.4 µM; pIC50 (OCT1; OCT1, Table 1, read-out: IC50): 4.99
COc1ccccc1OCCNC[C@@H](O)COc1cccc2[nH]c3ccccc3c12 [(R)-Carvedilol] | – | 37.9% | 48.6% | 13.5% | 99.6% | 58.2% | 23.5% | 100% | 76.9% | 96.6% | –
N[C@@H]1CONC1=O [(R)-Cycloserine] | 5.0% | – | 7.4% | – | 12.3% | 13.6% | 17.8% | – | – | 28% | (S)-Zolmitriptan inhibition [%] (OCT3; OCT3, 2 μM (S)-zolmitriptan): -0.4%; (S,S)-Ethambutol inhibition [%] (OCT1; OCT1, 20 μM inhibitor, 2 μM (S,S)-ethambutol, 5 min): 17.6%; ASP+ inhibition [%] (OCT1; OCT1, 20 μM inhibitor, 2 μM ASP+, 5 min, mean of three experiments): -0.8%
